The source of these data is patent US20230165829A1, “FLAVAGLINE DERIVATIVES FOR INHIBITION OF KRAS ONCOGENE ACTIVATION” (KHR BIOTEC GMBH, priority 2018, published 2023).

Read-outs that look alike come from different tables or passages of the source.

For assay [1], the system named is KRAS G12V.
Assay [2] has as its system RAS. In words: Active Ras pull down assay (CRAF-RBD, Ral-GDS-RA) after EGF stimulation in HeLa cells. The following applies: pre-treatment at 200 nM, 1 h before EGF stimulation. The format is cell-based.
Assay [3] concerns RAS. As to conditions: cited from earlier work.

For `COc1cc(OC)c2c(c1)O[C@@]1(c3ccc(Br)cc3)[C@H](c3ccccc3)C[C@@H](O)[C@@]21O` [FL3], the “inactivation of KRAS (inhibition of KRAS activation), relative luminescence vs DMSO” value in assay [1] was “inactivation of KRAS”.

Consider `COC(=O)[C@H]1[C@@H](O)[C@@]2(O)c3c(OC)cc(OC)cc3O[C@@]2(c2ccc(Br)cc2)[C@@H]1c1ccccc1` [FL10], for which the “inactivation of KRAS (inhibition of KRAS activation), relative luminescence vs DMSO” value in assay [1] is recorded as “inactivation of KRAS”.

In the case of `CNC(=O)[C@H]1[C@@H](O)[C@@]2(O)c3c(OC)cc(OC)cc3O[C@@]2(c2ccc(Br)cc2)[C@@H]1c1ccccc1` [FL13], the “inactivation of KRAS (inhibition of KRAS activation), relative luminescence vs DMSO” value in assay [1] was “inactivation of KRAS”.

Turning to `COc1ccc([C@@]23Oc4cc(OC)cc(OC)c4[C@]2(O)[C@H](O)C[C@H]3c2cccc(F)c2)cc1` [FL15], in assay [1], the “inactivation of KRAS (inhibition of KRAS activation), relative luminescence vs DMSO” value was “inactivation of KRAS”.

Turning to `COc1ccc([C@@]23Oc4cc(OC)cc(OC)c4[C@]2(O)[C@H](OC=O)C[C@H]3c2ccccc2)cc1` [FL19], the “inactivation of KRAS (inhibition of KRAS activation), relative luminescence vs DMSO” value in assay [1] is “inactivation of KRAS”.

`COc1cc(OC)c2c(c1)O[C@@]1(c3ccc(Br)cc3)[C@H](c3cccc(F)c3)C[C@H](NC(=O)N(C)C)[C@@]21O` [FL37]: the “inactivation of KRAS (inhibition of KRAS activation), relative luminescence vs DMSO” value in assay [1] was “inactivation of KRAS”.

For `COc1cc(OC)c2c(c1)O[C@@]1(c3ccc(Br)cc3)[C@H](c3cccc(F)c3)C[C@H](NC(N)=O)[C@@]21O` [FL40], in assay [1], the “inactivation of KRAS (inhibition of KRAS activation), relative luminescence vs DMSO” value was “inactivation of KRAS”.

In the case of `COc1cc(OC)c2c(c1)O[C@@]1(c3ccc(Cl)cc3)[C@H](c3cccc(F)c3)C[C@H](NC(=O)N(C)C)[C@@]21O` [FL42], the “inactivation of KRAS (inhibition of KRAS activation), relative luminescence vs DMSO” value in assay [1] is reported as “inactivation of KRAS”.

With `CNCCOc1ccc2c(c1)O[C@@]1(c3ccc(Cl)cc3)[C@H](c3ccccc3)C[C@@H](O)[C@@]21O` [IMD-26260], in assay [1], the “inactivation of KRAS (inhibition of KRAS activation), relative luminescence vs DMSO” value is recorded as “inactivation of KRAS”.

For `COc1ccc([C@@]23Oc4cc(OC)cc(OC)c4[C@]2(O)[C@H](O)[C@H](C(=O)N(C)C)[C@H]3c2ccccc2)cc1` [rocaglamide], the “activation of RAS in response to EGF (GTP-loaded Ras pull down)” value in assay [2] was “inhibited”. The “inactivation of KRAS (inhibition of KRAS activation), relative luminescence vs DMSO” value in assay [1] (100 nM compounds for 4 h, KRAS G12V transfected HeLa cells, similar results with KRAS WT + EGF (100 ng/ml, 30 min)) is given as “inactivation of KRAS”. Also, in assay [3], the “RAS-activation in KRAS-mutated cell lines” value is recorded as “inhibits RAS-activation”; the “specificity for KRAS versus isoforms HRAS and NRAS” value is “not specific enough to differentiate between KRAS and a closely related isoform HRAS and NRAS”.
